In PubChem BioAssay AID1549 (Sanford-Burnham Center for Chemical Genomics, 2009):
Activity calls are given as the source filed them. How the calls were made is not given here.

biological target: Influenza A virus M2 proton channel (A/TW/4845/1999 H1N1); assay: NMR binding screen, influenza A virus M2 proton channel, Kd (AID 1549); conditions: M2 protein

Row | SMILES | Kd
1 | N#CCc1nc2ccccc2s1 | > 4 mM (inactive)
2 | Cc1sc2nc(-c3ccco3)oc(=O)c2c1C | > 4 mM (inactive)
3 | O=C1C2C3C=CC(C3)C2C(=O)N1CCO (stereo not given) | > 4 mM (inactive)
4 | c1ccc(CCc2nc(-c3ccccn3)no2)cc1 | > 4 mM (inactive)
5 | CC1=NN(C(N)=S)C(C)(C)C1 | > 4 mM (inactive)
6 | N/C(=N/O)C1COc2ccccc2O1 (stereo not given) | > 4 mM (inactive)
7 | CCOc1ccc(C)cc1S(=O)(=O)n1ccnc1 | > 4 mM (inactive)
8 | CN(C)c1n[nH]c(=O)[nH]c1=O | > 4 mM (inactive)
9 | Cn1nc(-c2ccccc2)cc1N | > 4 mM (inactive)
10 | CC1=CC(=O)C2C(C)(C)CCC[C@]2(C)[C@@]1(O)CCc1ccoc1 (stereo not given in full) | > 4 mM (inactive)
11 | COc1ccc(S(=O)(=O)Nc2ccccn2)c(C)c1C | > 4 mM (inactive)
12 | O=c1oc(-c2ccccc2)nc2c1cnn2-c1ccccc1 | > 4 mM (inactive)
13 | COc1ccc(-c2cc(=O)c3c(O)c(OC)c(O[C@H]4O[C@H](CO[C@@H]5O[C@@H](C)[C@H](O)[C@@H](O)[C@H]5O)[C@@H](O)[C@H](O)[C@H]4O)cc3o2)cc1 | > 4 mM (inactive)
14 | COc1cccc(=O)c2c(C)n(C)c(C)c12 | > 4 mM (inactive)
15 | NC(=O)C1CCN(Cc2ccccc2)CC1 | > 4 mM (inactive)
16 | Cc1cc(NC(=O)c2cnn3cccnc23)no1 | > 4 mM (inactive)
17 | C[C@@H](N)[C@@H](O)c1ccccc1 | > 4 mM (inactive)
18 | CC(C)(C#N)O[C@@H]1O[C@H](CO)[C@@H](O)[C@H](O)[C@H]1O | > 4 mM (inactive)
19 | Cc1cccc(NC(=O)NC(N)=O)c1 | > 4 mM (inactive)
20 | C1CCN2C[C@@H]3C[C@H](CN4CCCC[C@@H]34)[C@H]2C1 | > 4 mM (inactive)
21 | C[C@@H]1CC[C@@]2(OC1)OC1CC3C4CC=C5C[C@@H](O)CC[C@]5(C)C4CC[C@]3(C)C1[C@@H]2C (stereo not given in full) | > 4 mM (inactive)
22 | Oc1ccc2c(c1)OCC1(O)Cc3cc(O)c(O)cc3C21 (stereo not given) | > 4 mM (inactive)
23 | CC(=O)O[C@@H]1C[C@@]2(C)[C@H](c3ccoc3)C[C@H]3O[C@]32[C@]2(C)C(=O)C(O)=C3C(C)(C)C(=O)C=C[C@]3(C)C12 (stereo not given in full) | > 4 mM (inactive)
24 | Cc1cccc(C(C)C)c1NC(=O)c1cccnc1 | > 4 mM (inactive)

Row | SMILES | Kd
25 | O=C(NCCCSc1ncccn1)Nc1ncccn1 | > 4 mM (inactive)
26 | CSc1nc(-c2ccccc2)ccc1C(N)=O | > 4 mM (inactive)
27 | CN(C)C(=O)c1ccccc1-c1ccccc1 | > 4 mM (inactive)
28 | Nc1cccc(-n2cccc2)c1 | > 4 mM (inactive)
29 | N#Cc1cnc(N2CCCCC2)nc1N | > 4 mM (inactive)
30 | Cc1ccc(C(=O)CS(C)(=O)=O)cc1 | > 4 mM (inactive)
31 | CC(=O)Nc1cccc(-c2nnc(-c3ccccc3)o2)c1 | > 4 mM (inactive)
32 | Oc1ccc(C(=S)N2CCOCC2)cc1 | > 4 mM (inactive)
33 | CCOC12NC(=O)CC(=O)N1C(c1ccccc1)=CS2 (stereo not given) | > 4 mM (inactive)
34 | CCCCCCCCCCCCCCC(C(=O)OC)C(O)(CC(=O)OC)C(=O)OC (stereo not given) | > 4 mM (inactive)
35 | CC(C)c1ccccc1NC(=O)c1cnccn1 | > 4 mM (inactive)
36 | CN(c1ccccc1C(=O)N1CCCC1)S(C)(=O)=O | > 4 mM (inactive)
37 | CC(C)=CCc1c2c(c3occ(-c4ccc(O)c(O)c4)c(=O)c3c1O)C=CC(C)(C)O2 | > 4 mM (inactive)
38 | O=C(Nc1nncs1)C1(c2ccccc2)CCCC1 | > 4 mM (inactive)
39 | NC(=O)c1ccsc1N | > 4 mM (inactive)
40 | NS(=O)(=O)c1ccc(N2CCCC2=O)cc1 | > 4 mM (inactive)
41 | CC(C)=CC(=O)Nc1ccccc1Br | > 4 mM (inactive)
42 | O=c1ccn(Cc2ccccc2)c(=O)[nH]1 | > 4 mM (inactive)
43 | COc1cc(N)ccc1NC(=O)c1cccs1 | > 4 mM (inactive)
44 | COc1cccc(NC(=O)c2cccs2)c1 | > 4 mM (inactive)
45 | Cc1occc1C(=O)Nc1ccc2c(c1)CCC2 | > 4 mM (inactive)
46 | CCOc1ccc(N2C(=O)CCC2=O)cc1 | > 4 mM (inactive)
47 | CCC(=O)OC1[C@@H]2CC3=C4CC(=O)O[C@@H](c5ccoc5)[C@]4(C)CCC3C(C)(C2=O)[C@@H](CC(=O)OC)C1(C)C (stereo not given in full) | > 4 mM (inactive)
48 | CN1CCC(NC(=O)c2cccnc2)CC1 | > 4 mM (inactive)

Row | SMILES | Kd
49 | CC12CCCC(O)(C1)C1CC(C)(C)C1CC2 (stereo not given) | > 4 mM (inactive)
50 | Cc1cccc(-n2c(N)cc(=O)[nH]c2=S)c1 | > 4 mM (inactive)
51 | Cn1nc(C(=O)N2CCOCC2)c2ccccc2c1=O | > 4 mM (inactive)
52 | Cn1c(O)c(C=NCC2CCNCC2)c(=O)n(C)c1=O | > 4 mM (inactive)
53 | O=S(=O)(CCN1CCCC1)c1ccccc1 | > 4 mM (inactive)
54 | COc1cccc2onc(N)c12 | > 4 mM (inactive)
55 | NC(=O)c1ccsc1NC(=O)C1=COCCO1 | > 4 mM (inactive)
56 | CCN1CCc2c(sc(N)c2C(N)=O)C1 | > 4 mM (inactive)
57 | CSc1cccc(NC(=O)c2c(Cl)cnn2C)c1 | > 4 mM (inactive)
58 | COc1ccc(/C=C/C(=O)O)cc1OC | > 4 mM (inactive)
59 | COC(=O)N1CCN(c2ccc(OC)cc2)CC1 | > 4 mM (inactive)
60 | C[C@]12CCC(=O)C=C1CCC1C2C(=O)C[C@@]2(C)C1CC[C@]2(O)C(=O)CO (stereo not given in full) | > 4 mM (inactive)
61 | O=C(O)/C=C1\NC(=O)c2ccccc21 | > 4 mM (inactive)
62 | Cc1nc(-c2ccc(NS(C)(=O)=O)cc2)cs1 | > 4 mM (inactive)
63 | NC(=O)C1CCN(C(=S)c2ccccc2)CC1 | > 4 mM (inactive)
64 | CC(=O)NC(NC(C)=O)c1ccccc1 | > 4 mM (inactive)
65 | COC(=O)c1cccnc1Oc1ccccc1 | > 4 mM (inactive)
66 | CC(C)(C)CC(=O)N1CCC(C(N)=O)CC1 | > 4 mM (inactive)
67 | COc1cc(C(=S)N2CCC(C(N)=O)CC2)ccc1O | > 4 mM (inactive)
68 | COc1ccc2[nH]cc(CCNC(C)=O)c2c1 | > 4 mM (inactive)
69 | COC(=O)CC1=Nc2ccccc2NC(=O)C1 | > 4 mM (inactive)
70 | O=C(OCc1c(F)cccc1Cl)c1cnccn1 | > 4 mM (inactive)
71 | Cc1[nH]c2ccccc2c1C=Nn1cncn1 | > 4 mM (inactive)
72 | COn1c(=O)c(-c2ccco2)[n+]([O-])c2ccccc21 | > 4 mM (inactive)

Row | SMILES | Kd
73 | Cc1cc(O)c(NC(=O)c2ccco2)cc1C | > 4 mM (inactive)
74 | O=[n+]1cc(C2=CC=CCC2)n([O-])c2c1CCCCC2 | > 4 mM (inactive)
75 | COc1ccc(C)cc1S(N)(=O)=O | > 4 mM (inactive)
76 | NCC1CN(Cc2ccccc2)CCO1 (stereo not given) | > 4 mM (inactive)
77 | CN(C)c1ccc(N2C(=O)CCC2=O)cc1 | > 4 mM (inactive)
78 | O=C(O)C1CC(C2CCCCN2)CN2CCCCC12 (stereo not given) | > 4 mM (inactive)
79 | CCNS(=O)(=O)c1cc(Br)ccc1OC | > 4 mM (inactive)
80 | O=C(CN1CCOCC1)Nc1nccs1 | > 4 mM (inactive)
81 | COc1ccc(-c2cc(=O)c3cc(OC)ccc3o2)cc1 | > 4 mM (inactive)
82 | Cc1nc2nc(COc3ccccc3)nn2c(C)c1Cl | > 4 mM (inactive)
83 | COC(=O)c1ccc2nccnc2c1 | > 4 mM (inactive)
84 | CN=C1SC(CC(=O)Nc2ccc(O)cc2)C(=O)N1C (stereo not given) | > 4 mM (inactive)
85 | COC(=O)c1cccs1 | > 4 mM (inactive)
86 | COc1ccc(/C=C2/C(=O)N=C(N)N2C)cc1OC | > 4 mM (inactive)
87 | NC(=O)c1cc2c(n(-c3ccccc3)c1=O)CCCC2=O | > 4 mM (inactive)
88 | Cn1cccc1C(=O)NS(=O)(=O)c1ccccc1Cl | > 4 mM (inactive)
89 | CC(=O)n1c(N)nc2ccccc21 | > 4 mM (inactive)
90 | CSc1ncnc2nc[nH]c12 | > 4 mM (inactive)
91 | OCC1CN(Cc2ccccc2)CCO1 (stereo not given) | > 4 mM (inactive)
92 | O=C(Nc1nccs1)c1ccc(=O)[nH]n1 | > 4 mM (inactive)
93 | O=c1c2c(nc3nc(COc4ccccc4)[nH]n13)CCC2 | > 4 mM (inactive)
94 | O=C1CSC(=O)N1CN1CCCC1 | > 4 mM (inactive)
95 | O=C(O)CCn1c(=O)oc2ccccc21 | > 4 mM (inactive)
96 | CC(=O)C1CC[C@H]2C3CC[C@H]4C[C@H](O)CC[C@]4(C)C3CC[C@]12C (stereo not given in full) | > 4 mM (inactive)

Row | SMILES | Kd
97 | C=C[C@H]1CN2CC[C@H]1C[C@@H]2[C@@H](O)c1ccnc2ccc(OC)cc12 | > 4 mM (inactive)
98 | CCC1(CC)C(=O)NC(=O)N=C1N | > 4 mM (inactive)
99 | O=C1COc2cc(O)ccc21 | > 4 mM (inactive)
100 | O=C(O)CCc1ccc2c(c1)OCO2 | > 4 mM (inactive)
101 | CC(=O)N1CCC(NC2CCCCCC2)CC1 | > 4 mM (inactive)
102 | O=C(CSc1ncccn1)NCc1ccco1 | > 4 mM (inactive)
103 | NC(=O)NC(=O)Nc1ccc(Cl)cc1 | > 4 mM (inactive)
104 | CS(=O)(=O)N1CCN(c2ccccc2F)CC1 | > 4 mM (inactive)
105 | CC(C)=CC1C(C(=O)O)C1(C)C (stereo not given) | > 4 mM (inactive)
106 | Nc1ccc2c(c1)N1CCN=C1S2 | > 4 mM (inactive)
107 | O=C(O)c1ccc(-n2cccn2)cc1 | > 4 mM (inactive)
108 | CCOC(=O)C1=C(C)N2CCN=C2S1 | > 4 mM (inactive)
109 | COc1ccc2c(CC(=O)O)coc2c1 | > 4 mM (inactive)
110 | Cc1ccccc1NC(=O)CC1SC(N)=NC1=O (stereo not given) | > 4 mM (inactive)
111 | Cc1nc(-c2ccccc2)sc1C(N)=O | > 4 mM (inactive)
112 | Cc1cc(=O)c2ccccc2n1CC(N)=O | > 4 mM (inactive)
113 | Cc1nc(-c2ccccc2)ncc1C(=O)O | > 4 mM (inactive)
114 | CC(=O)Nc1ccc2c(c1)CCCC2=O | > 4 mM (inactive)
115 | Cc1cc(C)n2nc(NCc3ccccc3)nc2n1 | > 4 mM (inactive)
116 | COc1ccc2c(c1)c1n[nH]c(=S)nc1n2C | > 4 mM (inactive)
117 | COc1ccc(-c2cc(=O)c3c(O)cc(O[C@@H]4O[C@H](CO[C@H]5O[C@H](C)[C@@H](O)[C@H](O)[C@@H]5O)[C@@H](O)[C@H](O)[C@H]4O)cc3o2)cc1O | > 4 mM (inactive)
118 | CN(C)CCCN1CNC(=S)NC1 | > 4 mM (inactive)
119 | Cc1cc(Cl)ccc1NC(=O)C(N)=O | > 4 mM (inactive)
120 | O=C(O)CCCCCCCCCCCCC1C=CCC1 (stereo not given) | > 4 mM (inactive)
